Key:
Rattus norvegicus [1] = species on record: Rattus norvegicus; test: (§1) Activation of rat liver AMPK assessed as concentration required to induce 50 % activity
Caspase-3 (Homo sapiens) = target: T1, Caspase-3 (Homo sapiens) (UniProt P42574); test: Induction of autoactivation of procaspase-3 relative to control
T1 sequence (whole entry): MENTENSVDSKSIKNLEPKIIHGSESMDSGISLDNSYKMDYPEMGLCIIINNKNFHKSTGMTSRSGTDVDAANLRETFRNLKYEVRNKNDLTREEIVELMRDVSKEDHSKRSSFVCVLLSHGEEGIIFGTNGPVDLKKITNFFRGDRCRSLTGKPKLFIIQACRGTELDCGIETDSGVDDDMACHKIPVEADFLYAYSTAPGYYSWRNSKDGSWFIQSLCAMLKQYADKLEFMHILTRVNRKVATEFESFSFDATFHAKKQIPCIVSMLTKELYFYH

Rattus norvegicus [2] = species on record: Rattus norvegicus; test: Activation of rat liver AMPK relative to basal activity level; type: tissue-based
Rattus norvegicus [3] = species on record: Rattus norvegicus; test: Activation of rat liver AMPK alpha subunit assessed as concentration required to induce 50 % activity
[4] = as §1

## N#Cc1c(O)c2c(-c3ccc(-c4ccccc4O)cc3)csc2[nH]c1=O
Rattus norvegicus [1]
  Activity: 0.8 µM

## C=CCc1cccc(/C=N/NC(=O)CN2CCN(Cc3ccccc3)CC2)c1O
Caspase-3 (Homo sapiens)
  fold change (FC): 3

## Cc1cc(-c2ccc(/C=C3\S/C(=N\c4ccc(Cl)c(C(=O)O)c4)NC3=O)o2)c([N+](=O)[O-])cc1C
Rattus norvegicus [2]
  fold change (FC): 1.5
Rattus norvegicus [1]
  Activity: 0.3 µM
Rattus norvegicus [3]
  Activity: 8 µM

## Nc1ncnc2c1ncn2[C@@H]1O[C@H](COP(=O)(O)O)[C@@H](O)[C@H]1O [ADENOSINE PHOSPHATE]
[4]
  AC50: 56 µM

— ChEMBL document CHEMBL1240408, “Turning enzymes ON with small molecules” (Nat Chem Biol, 2010)
